Patent US20150272970A1, “TARGETING CHEMOTHERAPY AGENT RESISTANCE IN CANCER” (priority 2012, published 2015)
“Also recorded” adds a separate entry of the source.

Legend:
CK19/GFP-negative cells = experiment: Apoptotic response by Caspase-3 and PARP cleavage immunoblot; type: cell-based, human; details: LY294002 50 μM, ABT-737 10 μM, 72 hours
Procedure: (§1) Whole cell extracts were prepared in sample buffer and analyzed by immunoblotting. Primary antibodies against poly (ADP-ribose) polymerase (PARP) (BD Pharmingen), cleaved caspase-3 (Cell Signaling), cytokeratin 19 (CK19) (Abcam), cytokeratin 18 (CK18) (Abcam), androgen receptor (AR) (Sigma-Aldrich), prostate specific membrane antigen (PSMA) (Abcam), prostate specific antigen (PSA) (Epitomics), cytokeratin 5 (CK5) (Covance), cytokeratin 14 (CK14) (Biogenex), p63 (Santa Cruz), CD44 (Neomarkers), activated Notch2 (Abcam), Hes1 (Abcam), Patched (Abcam), Gli1 (Santa Cruz), Gli2 (Abcam), pan-HLA class I (Abcam), and AKT (Cell Signaling), phospho-AKT Ser 473 (Cell Signaling), Bcl-2 (Cell Signaling), ABCB1/P-Glycoprotein (Calbiochem), Green fluorescent protein (Santa Cruz), and β-Actin (Sigma-Aldrich) were used in immunoblot assays using standard procedures. Protein expression was quantified by comparing band expression using Quantity One software (Bio-Rad).
(§2) Cells were exposed to vehicle solution (Control), LY294002 (50 μM), and ABT-737 (10 μM) for 72 hours, alone or in combination.

[1] = system: DU145-pCK19-GFP and 22Rv1-pCK19-GFP sorted cells; experiment: Colony formation assay of GFP-sorted cells; type: cell-based, human; details: 72 hours; for colony formation of CK19/GFP-negative cells with PI3K/AKT and Bcl-2 inhibition: LY294002 50 μM, ABT-737 10 μM; for colony formation of CK19/GFP-negative cells / colony formation of CK19/GFP-positive cells: Mitoxantrone 125/500 nM, Cisplatin 5/2.5 μM, Vinorelbine 500/750 nM (DU145/22Rv1)
Procedure: as §2

p-AKT (Ser473) = experiment: Immunoblot of AKT phosphorylation; type: cell-based, human; details: 1 μM, 72 hours, CK19/GFP-negative cells
Procedure: as §1

[2] = system: Notch and Hedgehog pathway target genes; experiment: Quantitative RT-PCR of Notch and Hedgehog pathway target genes in cells; type: cell-based, human; details: 1 μM, 72 hours, DU145-pCK19-GFP and 22Rv1-pCK19-GFP cells
Procedure: Total RNA was isolated using the RNeasy Mini kit according to the manufacturer's instructions (Qiagen). Complementary DNA was synthesized from equivalent concentrations of total RNA using the SuperScript III First-Strand Synthesis SuperMix Kit (Invitrogen) according to the manufacturer's instructions. Coding sequences for genes of interest and β-Actin as an internal control were amplified from 500 ng of complementary DNA using the QuantiTect SYBR Green PCR Kit (Qiagen).
Amplification was carried out using a Stratagene mx3005p (Agilent Technologies). Cycle threshold (Ct) values were determined and normalized to the housekeeping gene (β-actin) for each experiment. Fold changes for experimental groups relative to respective controls were calculated using MX Pro software (Agilent Technologies). Quantitative RT-PCR was performed in DU145-pCK19-GFP and 22Rv1-pCK19-GFP cells as well as in cells obtained from mice bearing DU145 and 22Rv1 tumor xenografts treated for 21 days with Docetaxel, and Hedgehog and Notch inhibitors, alone or in combination. Quantitative RT-PCR was performed in tumor xenografts removed 4 hours after the last drug dose was administered.

Bcl-2 = experiment: Immunoblot of Bcl-2 expression; type: cell-based, human; details: 1 μM, 72 hours, CK19/GFP-negative cells
Procedure: Whole cell extracts were prepared in sample buffer and analyzed by immunoblotting. […] Protein expression was quantified by comparing band expression using Quantity One software (Bio-Rad).

[3] = system: DU145-pCK19-GFP and 22Rv1-pCK19-GFP cells; experiment: Live cell imaging (time-lapse) in presence of Docetaxel; type: cell-based, human; details: in the presence of Docetaxel
Procedure: Time-lapse videomicroscopy was used to assess Docetaxel sensitivity of DU145-pCK19-GFP and 22Rv1-pCK19-GFP cells. Cells growing in 6-well plates at low confluence were placed in the stage inside an incubator chamber at 37° C., 50% humidity, and in an atmosphere of 5% CO2. Unattended time-lapse movies of randomly chosen GFP+ and GFP− DU145 and 22Rv1 cells were performed with a Nikon Eclipse Ti inverted microscope. NIS Elements AR (Nikon) software was used to collect and process data. Imaging was performed using a 10× objective, and images were captured using 200-ms exposure times for GFP and 20-ms exposure times for bright field every 30 min.

22Rv1-pCK19-GFP cells = experiment: Flow cytometry of viable CK19/GFP populations after Docetaxel; type: cell-based, human; details: 50 nM Docetaxel
Procedure: (§3) Flow cytometry analysis of subpopulations of prostate cancer cells were carried out following standard procedures. Intracellular CK19 and CK18 expression analysis was performed in single-cell suspensions fixed with 70% ethanol, whereas the expression of cell surface HLA class I was determined in fresh cell samples (without fixation). Primary antibodies against CK19 (Abcam), CK18 (Abcam), HLA class I (Abcam), HLA class I conjugated to phycoerythrin (Abcam), and GFP (Abcam) were used. […] Samples were acquired with a FACscan Flow Cytometer (BD Biosciences) and analyzed with CellQuest Pro software (BD Biosciences). A minimum of 10,000 cells were measured per sample.

[4] = system: DU145-pCK19-GFP and 22Rv1-pCK19-GFP cells; experiment: Immunoblots of Docetaxel-resistance markers in unsorted cells; type: cell-based, human; details: Docetaxel 72 hours (10 nM DU145, 50 nM 22Rv1)
Procedure: as §1

DU145-pCK19-GFP cells = experiment: Flow cytometry of viable CK19/GFP populations after Docetaxel; type: cell-based, human; details: 10 nM Docetaxel for 72 h
Procedure: as §3

[5] = system: DU145 and 22Rv1 xenografts; experiment: Percentage of CK-negative cells in tumor xenografts; type: in vivo, NOD/SCID mice; details: treated for 4 weeks
Procedure: Immunofluorescence analyses were conducted on prostate cancer cell lines and formalin fixed paraffin-embedded tissue sections from normal human prostate, human cancers, and tumor xenografts. Primary antibodies included a combination of cytokeratin 19 and 18 (Abcam), green fluorescence protein (Abcam), cytokeratin 5 (Covance), cytokeratin 14 (Biogenex), p63 (Santa Cruz), pan-HLA class I (Abcam), Ki67 (Abcam) and the following transcription factors: activated Notch2 (Abcam), Gli1 (Santa Cruz), Gli2 (Abcam) and androgen receptor (DAKO). […] Prostate cancer cells (10,000) were plated in 35 mm culture dishes and 24 hours later stained by standard immunofluorescence procedures. Tissue sections (5 μm) were deparaffinized and submitted to standard peroxidase based immunohistochemistry and immunofluorescence procedures. Quantification of the expression of cytokeratins, HLA class I antigens, transcription factors, and androgen receptor was performed by evaluating tumor cells. Percentage of positive and negative cells was determined by counting the number of tumor cells in 10 contiguous high power fields in three different areas of the tumor, and referred to the total number of counted cancer cells.

## CN(C)CC[C@H](CSc1ccccc1)Nc1ccc(S(=O)(=O)NC(=O)c2ccc(N3CCN(Cc4ccccc4-c4ccc(Cl)cc4)CC3)cc2)cc1[N+](=O)[O-] [ABT-737]
CK19/GFP-negative cells
  apoptosis (PARP and Caspase-3 cleavage) with PI3K/AKT and Bcl-2 inhibition: not individual
[1]
  colony formation of CK19/GFP-negative cells with PI3K/AKT and Bcl-2 inhibition: not individual

## N.N.[Cl][Pt][Cl] [Cisplatin]
[1]
  colony formation of CK19/GFP-negative cells: formed colonies
  colony formation of CK19/GFP-positive cells: failed to do so

## C[C@H](NC(=O)Cc1cc(F)cc(F)c1)C(=O)N[C@H]1N=C(c2ccccc2)c2ccccc2N(C)C1=O [Compound E]
p-AKT (Ser473); listed as CE
  p-AKT (Ser473) level: significantly reduced; also recorded: specifically decreases
[2]
  targeting of respective pathway (mRNA of pathway target genes): targeting their respective pathways

## CC1=C2C[C@H]3[C@@H](CC=C4C[C@@H](O)CC[C@@]43C)[C@@H]2CC[C@]12O[C@@H]1C[C@H](C)CN[C@H]1[C@H]2C [Cyclopamine]
Bcl-2
  Bcl-2 expression level: significantly reduced; also recorded: reduces
[2]
  targeting of respective pathway (mRNA of pathway target genes): targeting their respective pathways

## C[C@H](NC(=O)Cc1cc(F)cc(F)c1)C(=O)NC1C(=O)N(C)c2ccccc2-c2ccccc21 (stereo partly drawn) [DBZ, (2S)-2-[2-(3,5-difluorophenyl)-acetylamino]-N-(5-methyl-6-oxo-6,7-dihydro-5H-dibenzo[b,-d]azepin-7-yl)-propionamide]
p-AKT (Ser473)
  p-AKT (Ser473) level: significantly reduced; also recorded: decreases
[2]
  targeting of respective pathway (mRNA of pathway target genes): targeting their respective pathways

## CC(=O)O[C@@]12CO[C@@H]1C[C@H](O)[C@@]1(C)C(=O)[C@H](O)C3=C(C)[C@@H](OC(=O)[C@H](O)[C@@H](NC(=O)OC(C)(C)C)c4ccccc4)C[C@@](O)([C@@H](OC(=O)c4ccccc4)[C@H]21)C3(C)C [Docetaxel]
[3]
  behavior of CK19/GFP-negative cells under therapy: able to divide and exit mitosis
  behavior of CK19/GFP-positive cells under therapy: died after mitotic arrest
22Rv1-pCK19-GFP cells; 8.5±3.5% before treatment
  viable 22Rv1-pCK19-GFP-negative cells: 78.6±4.1%
22Rv1-pCK19-GFP cells; 85.0±2.0% before treatment
  viable CK19/GFP-positive cells: 19.3±3.4%
[4]
  differentiation markers and developmental signaling pathways: expected reduction in differentiation markers and increase in developmental signaling pathways
[1]; Docetaxel 10 nM (DU145) and 50 nM (22Rv1)
  colony formation after exposure to Docetaxel: only CK19/GFP-negative cells formed colonies
DU145-pCK19-GFP cells; 4.4±4.3% before treatment
  viable CK19/GFP-negative population: 73.1±10.2%
DU145-pCK19-GFP cells; 87.5±10.4% before treatment
  viable CK19/GFP-positive population: 28.3±10.6%
[5]
  CK-negative cells in xenografts: enriched for CK-negative cells

## CS(=O)(=O)c1ccc(C(=O)Nc2ccc(Cl)c(-c3ccccn3)c2)c(Cl)c1 [GDC-0449, Vismodegib]
Bcl-2
  Bcl-2 expression level: significantly reduced; also recorded: reduces
[2]
  targeting of respective pathway (mRNA of pathway target genes): targeting their respective pathways

## Cl.O=c1cc(N2CCOCC2)oc2c(-c3ccccc3)cccc12 [LY294002, 2-(4-Morpholinyl)-8-phenyl-1(4H)-benzopyran-4-one hydrochloride]
CK19/GFP-negative cells
  apoptosis (PARP and Caspase-3 cleavage) with PI3K/AKT and Bcl-2 inhibition: not individual
[1]
  colony formation of CK19/GFP-negative cells with PI3K/AKT and Bcl-2 inhibition: not individual

## O=C1c2c(O)ccc(O)c2C(=O)c2c(NCCNCCO)ccc(NCCNCCO)c21 [Mitoxantrone]
[1]
  colony formation of CK19/GFP-negative cells: formed colonies
  colony formation of CK19/GFP-positive cells: failed to do so

## CCC1=C[C@@H]2CN(C1)Cc1c([nH]c3ccccc13)[C@@](C(=O)OC)(c1cc3c(cc1OC)N(C)[C@H]1[C@@](O)(C(=O)OC)[C@H](OC(C)=O)[C@]4(CC)C=CCN5CC[C@]31[C@@H]54)C2 [Vinorelbine]
[1]
  colony formation of CK19/GFP-negative cells: formed colonies
  colony formation of CK19/GFP-positive cells: failed to do so
